According to ChEMBL document CHEMBL6078718, “F-CPI: A Multimodal Deep Learning Approach for Predicting Compound Bioactivity Changes Induced by Fluorine Substitution” (J Med Chem, 2025):

What follows are compounds tested against Replicase polyprotein 1ab (Severe acute respiratory syndrome coronavirus 2, UniProt P0DTD1) (assay: Inhibition of 6xHis-tagged SARS-CoV-2 3CLpro using DKE as substrate preincubated for 60 mins followed by substrate addition measured after 20 mins by fluorescence based assay).

Point of comparison: C[C@H](NC(=O)C(F)(F)F)C(=O)N(C)[C@@H](CC1CC1)C(=O)N1C[C@]2(C[C@H]1C#N)C(=O)Nc1ccccc12, IC50 25.5 nM. Against it:
- C[C@H](NC(=O)C(F)F)C(=O)N(C)[C@@H](CC1CC1)C(=O)N1C[C@]2(C[C@H]1C#N)C(=O)Nc1ccccc12 — within 1.5-fold, 21.2 nM
- CC(=O)N[C@H](C(=O)N1C[C@H]2[C@@H]([C@H]1C(=O)N[C@H](C#N)C[C@@H]1CCNC1=O)C2(C)C)c1cc(Cl)c(OCCN(C)C)c(Cl)c1 — 1100-fold higher, 28200 nM
- CN(C)CCOc1c(Cl)cc([C@H](NC(=O)CF)C(=O)N2C[C@H]3[C@@H]([C@H]2C(=O)N[C@H](C#N)C[C@@H]2CCNC2=O)C3(C)C)cc1Cl — 9-fold higher, 230 nM
- CC(C)C[C@@H](C(=O)N1C[C@]2(C[C@H]1C#N)C(=O)Nc1ccccc12)N(C)C(=O)[C@H](C)NC(=O)C(C)(C)F — within 1.5-fold, 24.3 nM
- CC(C)C[C@@H](C(=O)N1C[C@]2(C[C@H]1C#N)C(=O)Nc1ccccc12)N(C)C(=O)[C@H](C)NC(=O)C(C)C — within 1.5-fold, 29.8 nM
